According to patent publication US12686680B2, “Substituted pyrazolo[1,5-α]pyrimidines as CRF receptor antagonists” (Neurocrine Biosciences, Inc., priority 2019, dated 2026):

Assays:
CRF1 receptor = target: T1, CRF1 receptor (Homo sapiens, UniProt P34998); assay: CRF1 receptor binding kinetics (association/dissociation rate constants, method of Fleck et al.); settings: for Ki: Ki=k−1/k1, read-out: Kinetic Ki; for k1: association rate constant; for k^−1: dissociation rate constant
T1 sequence (P34998 24-415): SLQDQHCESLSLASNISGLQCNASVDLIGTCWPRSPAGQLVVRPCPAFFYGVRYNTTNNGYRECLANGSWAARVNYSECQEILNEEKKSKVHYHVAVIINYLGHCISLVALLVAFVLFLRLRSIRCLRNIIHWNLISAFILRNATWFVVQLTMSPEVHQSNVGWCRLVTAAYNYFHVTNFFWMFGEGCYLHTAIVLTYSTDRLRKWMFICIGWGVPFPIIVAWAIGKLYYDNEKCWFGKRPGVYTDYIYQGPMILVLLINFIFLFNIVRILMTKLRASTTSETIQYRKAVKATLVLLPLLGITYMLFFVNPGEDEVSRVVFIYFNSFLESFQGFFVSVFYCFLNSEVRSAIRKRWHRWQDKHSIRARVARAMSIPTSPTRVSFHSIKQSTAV
Procedure: The association (k1) and dissociation (k−1) rate constants defining binding of the Compounds to the CRF1 receptor were determined by the method described in Fleck et al. (J. Pharmacology and Experimental Therapeutics, 341(2):518-531, 2012) (hereinafter “Fleck et al.” and incorporated by reference in its entirety). As described therein, the activity of a CRF1 receptor antagonist can be expressed as the kinetically derived affinity (Ki) calculated from the association (k1) and dissociation (k−1) rate constants by the following equation: Ki=k−1/k1
The Compounds listed in Table 5 were evaluated according to these procedures, and the kinetic Ki was determined and found to be as follows: […]

ADX rats = assay: Lowering of ACTH in adrenalectomized rats; assay type: in vivo; settings: oral, 10 mg/kg single dose, n=11/group
[1] = pKa determination, SiriusT3 UV-metric and pH-metric co-solvent titration; assay type: physicochemical; settings: water:CH3OH co-solvent mixtures
Procedure: The pKa was determined using a SiriusT3 (Serial: T317136) with a UV-metric co-solvent titration assay and a pH-metric co-solvent titration assay. For the UV-metric, 10 mM sample was prepared in DMSO with phosphate buffer and placed on the instrument along with a blank prepared with the same composition, absent compound. For pH-metric, an appropriate weight of sample was added to a glass vial to meet buffer capacity requirements, absent of diluent. For each test, pKa was measured in three water:CH3OH ratios. The reported pKas are extrapolated graphically via the Yasuda-Shedlovsky method.

Ki (CRF1 receptor)	k1 (CRF1 receptor)	k^−1 (CRF1 receptor)	pKa ([1]; UV-metric method, Yasuda-Shedlovsky extrapolation from water:CH3OH)	pKa ([1]; overall, two methods)	pKa ([1]; pH-metric method, Yasuda-Shedlovsky extrapolation from water:CH3OH)	Structure (SMILES)	duration of lowering of plasma ACTH levels (ADX rats)	plasma ACTH levels (ADX rats)
< 220 pM	4.9 ± 1.7 10^6M^−1min^−1	<0.001 min⁻¹	4.07 ± 0.06	~4.1	4.06 ± 0.08	CCCN(Cc1ccc(-c2csc(N(C)C)n2)cc1)c1cc(C)nc2c(-c3cnc(N(C)C)cc3C)c(C)nn12 [Compound 1, 5-{7-[({4-[2-(dimethylamino)-1,3-thiazol-4-yl]phenyl}methyl)(propyl)amino]-2,5-dimethylpyrazolo[1,5-a]pyrimidin-3-yl}-N,N,4-trimethylpyridin-2-amine]	up to 5 hours	significantly lowered
< 360 pM	2.9 ± 0.92 10^6M^−1min^−1	<0.001 min⁻¹				CCCN(Cc1ccc(-c2ccccn2)cc1)c1cc(C)nc2c(-c3cnc(N(C)C)cc3C)c(C)nn12 [Compound 3, 5-{2,5-dimethyl-7-[propyl({[4-(pyridin-2-yl)phenyl]methyl})amino]pyrazolo[1,5-a]pyrimidin-3-yl}-N,N,4-trimethylpyridin-2-amine]		
950 pM	2.2 10^6M^−1min^−1	0.0021 min⁻¹				CCCN(Cc1ccc(-n2cncn2)cc1)c1cc(C)nc2c(-c3cnc(N(C)C)cc3C)c(C)nn12 [Compound 10, 5-{2,5-dimethyl-7-[propyl({[4-(1H-1,2,4-triazol-1-yl)phenyl]methyl})amino]pyrazolo[1,5-a]pyrimidin-3-yl}-N,N,4-trimethylpyridin-2-amine]		
< 190 pM	5.3 ± 0.78 10^6M^−1min^−1	<0.001 min⁻¹				CCCN(Cc1ccc(-c2cccnc2)cc1)c1cc(C)nc2c(-c3cnc(N(C)C)cc3C)c(C)nn12 [Compound 2, 5-{2,5-dimethyl-7-[propyl({[4-(pyridin-3-yl)phenyl]methyl})amino]pyrazolo[1,5-a]pyrimidin-3-yl}-N,N,4-trimethylpyridin-2-amine]		
